Experimental data reported in PubChem BioAssay (NCI).
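Grown in 96-well plates, cells were treated for 48 hours with each compound at five concentrations. Insufficient inhibition: endpoint recorded as highest concentration tested. Here, GI50 denotes the concentration required for 50% inhibition of growth. TGI: total growth inhibition.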

Tests used:
Assay in all cases: NCI anticancer screen, dose series, 48 h
M14 melanoma = test system: M14 melanoma
SF-295 CNS = test system: SF-295 CNS
SF-268 CNS = test system: SF-268 CNS
NCI/ADR-RES ovarian = test system: NCI/ADR-RES ovarian
SF-539 CNS = test system: SF-539 CNS
SW-620 colon = test system: SW-620 colon
HS 578T breast = test system: HS 578T breast
OVCAR-3 ovarian = test system: OVCAR-3 ovarian
HOP-92 NSCLC = test system: HOP-92 NSCLC
DU-145 prostate = test system: DU-145 prostate

Row | Compound | GI50 (M14 melanoma) [µM] | TGI (M14 melanoma) [µM] | GI50 (SF-295 CNS) [µM] | TGI (SF-295 CNS) [µM] | GI50 (SF-268 CNS) [µM] | TGI (SF-268 CNS) [µM] | GI50 (NCI/ADR-RES ovarian) [µM] | TGI (NCI/ADR-RES ovarian) [µM] | GI50 (SF-539 CNS) [µM] | TGI (SF-539 CNS) [µM] | GI50 (SW-620 colon) [µM] | TGI (SW-620 colon) [µM] | GI50 (HS 578T breast) [µM] | TGI (HS 578T breast) [µM] | GI50 (OVCAR-3 ovarian) [µM] | TGI (OVCAR-3 ovarian) [µM] | TGI (HOP-92 NSCLC) [µM] | TGI (DU-145 prostate) [µM] | GI50 (DU-145 prostate) [µM]
1 | Cc1cn2c(/C=N/N=C(N)N)c(-c3cccs3)nc2s1 | 1.63 | 3.01 | 3.28 | 14.4 | 12.9 | 36.6 | 15.3 | 28.7 | 1.6 | 3.12 | 1.71 | 4.02 | 11.4 | 32.6 | 1.91 | 5.5 | – | – | –
2 | O=C1C(Cl)C(c2ccccc2O)N1n1cnc2ccccc2c1=O (centres undefined) | – | > 100 | – | > 100 | – | > 100 | – | – | – | – | – | > 100 | – | – | – | > 100 | – | – | –
3 | O=S1Nc2c(Cl)cc(Cl)c3c(Cl)cc(Cl)c(c23)N1 | – | > 100 | – | > 100 | – | > 100 | – | – | – | > 100 | – | > 100 | – | – | – | 96.2 | 51 | – | –
4 | SCCSCCCSCCS | – | > 100 | – | > 100 | – | > 100 | – | > 100 | – | > 100 | – | > 100 | – | – | – | > 100 | – | > 100 | –
5 | COC(C(=O)NCCCCNC(=O)C(OC)c1ccccc1)c1ccccc1 (centres undefined) | – | > 100 | – | > 100 | – | > 100 | – | – | – | > 100 | – | > 100 | – | – | – | > 100 | > 100 | – | –
6 | CCCN(CCCC(NC(C)=O)C(=O)NCc1ccccc1)C(=O)NCCCl (centres undefined) | – | > 100 | – | > 100 | – | > 100 | – | – | – | > 100 | – | > 100 | – | – | – | > 100 | > 100 | – | –
7 | COc1cc(CNc2ccccc2C(=O)N2CCN(C(=O)c3cc(-c4cc(OC)c(OC)c(OC)c4)n4nc(-c5ccccc5)cc4n3)CC2)cc(OC)c1OC | 4.05 | > 100 | – | – | 4.89 | > 100 | 1.95 | 5.76 | 2.54 | > 100 | 3.67 | > 100 | 3.8 | > 100 | 2.69 | 9.59 | – | > 100 | 3.96
8 | O=c1[nH]c2cc(Cl)ccc2nc1/C(=N\O)C(O)c1ccc([N+](=O)[O-])cc1 (centres undefined) | – | > 100 | – | > 100 | – | > 100 | – | – | – | > 100 | – | > 100 | – | – | – | – | – | – | –
9 | COC(=O)C1[C@H](c2cc(OC)c(OC)c(OC)c2)OC(=O)C1(C(=O)OC)C(=O)c1ccc2c(c1)OCO2 (some centres undefined) | – | > 100 | – | > 100 | – | > 100 | – | – | – | > 100 | – | > 100 | – | – | – | > 100 | > 100 | – | –
10 | OCC(O)c1nc2ccc3[nH]ncc3c2c2c1CCCC2 (centres undefined) | 1.17 | 2.78 | 1.62 | > 50 | 1.22 | 4.64 | 1.34 | 4.51 | 0.957 | 2.4 | 1.3 | > 50 | 1.4 | 4.26 | 1.67 | > 50 | – | > 50 | 1.59
11 | O=[N+]([O-])C1Cc2ccccc2OC1c1ccccc1 (centres undefined) | – | > 100 | – | > 100 | – | > 100 | – | – | – | 89.2 | – | > 100 | – | – | – | > 100 | > 100 | – | –
12 | CC(C)(C)C(=O)OCC1CCC(n2cnc3c(=O)[nH]c(N)nc32)O1 (centres undefined) | – | > 100 | – | > 100 | – | > 100 | – | – | – | > 100 | – | > 100 | – | – | – | > 100 | > 100 | – | –
13 | O=C1OC(O)C(Oc2c(Cl)cccc2Cl)=C1Cl (centres undefined) | – | 33.2 | – | 33.9 | – | 31.3 | – | – | – | 32.3 | – | 28.3 | – | – | – | 31 | 41.9 | – | –
14 | C[N+](C)(C)CC(=O)N/N=C(\C(=O)NC1=C(Cl)C(=O)c2ccccc2C1=O)C(C#N)c1csc(-c2ccc([N+](=O)[O-])cc2)n1 (centres undefined) | – | > 100 | – | > 100 | – | > 100 | – | – | – | > 100 | – | > 100 | – | – | – | > 100 | > 100 | – | –
15 | N#C/C(=C1\SC(N=Nc2ccccc2)C(=O)N1c1ccccc1)c1nc2ccccc2[nH]1 (centres undefined) | – | > 100 | – | > 100 | – | > 100 | – | – | – | 64.4 | – | > 100 | – | – | – | > 100 | > 100 | – | –
16 | Cn1c(=O)c2nc(-c3ccc(Cl)cc3)oc2n(C)c1=O | – | > 100 | – | > 100 | – | > 100 | – | – | – | > 100 | – | > 100 | – | – | – | > 100 | > 100 | – | –
17 | CC(=O)On1c(-c2ccccc2-c2nc3ccccc3n2OC(C)=O)nc2ccccc21 | – | > 100 | – | > 100 | – | > 100 | – | > 100 | – | > 100 | – | > 100 | – | > 100 | – | > 100 | – | > 100 | –
18 | CCC(CNc1cc(OC)cc2cccnc12)NC1CCCCC1 (centres undefined) | 17.1 | 33.5 | 17.3 | 45.8 | 33.2 | > 100 | 35.3 | > 100 | 56.8 | > 100 | 19.4 | 56.7 | 15.2 | 95.6 | 17.3 | 65.5 | – | > 100 | 35.5
19 | COC(=O)C(Cc1nc2ccccc2[nH]c1=O)C(=O)C(=O)Nc1ccc([N+](=O)[O-])cc1[N+](=O)[O-] (centres undefined) | – | 32.4 | – | 49.9 | – | 47.7 | – | – | – | 38.5 | – | 39.6 | – | – | – | 30.5 | – | – | –
20 | CC(=O)[CH-]C(=O)c1ccccc1.CC(=O)[CH-]C(=O)c1ccccc1.CCOCC[O-].CCOCC[O-].[Ti+4] | 16.7 | 37.1 | 17.5 | 33.9 | 13.8 | 34.8 | – | – | 19.1 | 50.4 | 28.3 | > 100 | – | – | 21.6 | > 100 | – | – | –
21 | CCc1cccc(CC)c1NC(=O)C1=C(C)NC(C)=C(C(=O)Nc2c(CC)cccc2CC)C1c1ccc([N+](=O)[O-])cc1 | – | 42.5 | – | 38.6 | – | > 100 | – | – | – | 39.8 | – | 59.1 | – | – | – | 96 | 39.6 | – | –
22 | O=c1c2cccc3cccc(c4n1CCN=4)c32 | – | > 100 | – | > 100 | – | > 100 | – | – | – | > 100 | – | > 100 | – | – | – | > 100 | > 100 | – | –
23 | CN(C)C=C1C(Cl)=C(C=O)CC(C=O)=C1Cl | – | 26.7 | – | 41.7 | – | 27.6 | – | – | – | 27.9 | – | 7.3 | – | – | – | 27.7 | 21.8 | – | –
